# According to BindingDB's records for doi:10.3109/14756366.2011.595713 (Suven Life Sciences Ltd, 2012):
# Target: 5-hydroxytryptamine receptor 6 (Homo sapiens, UniProt P50406)
# Assay: Radioligand-Binding Assay
# Details: pH 7.4; 37 °C
# Protocol: In brief, receptor source and radioligand used were human recombinant expressed in HEK-293 cells and [3H] LSD (60-80 Ci/mmol), respectively. The final ligand concentration was 1.5 nM and non-specific determinant was methiothepin mesylate ([…]). The reference compound and positive control is methiothepin mesylate. Reactions were carried out in 50 mM Tris-HCl (pH 7.4) containing 10 mM MgCl2, 0.5 mM EDTA for 60 min at 37°C. The reaction was terminated by rapid vacuum filtration onto glass fibre filters.
# Sequence of 5-hydroxytryptamine receptor 6 (P50406 whole entry): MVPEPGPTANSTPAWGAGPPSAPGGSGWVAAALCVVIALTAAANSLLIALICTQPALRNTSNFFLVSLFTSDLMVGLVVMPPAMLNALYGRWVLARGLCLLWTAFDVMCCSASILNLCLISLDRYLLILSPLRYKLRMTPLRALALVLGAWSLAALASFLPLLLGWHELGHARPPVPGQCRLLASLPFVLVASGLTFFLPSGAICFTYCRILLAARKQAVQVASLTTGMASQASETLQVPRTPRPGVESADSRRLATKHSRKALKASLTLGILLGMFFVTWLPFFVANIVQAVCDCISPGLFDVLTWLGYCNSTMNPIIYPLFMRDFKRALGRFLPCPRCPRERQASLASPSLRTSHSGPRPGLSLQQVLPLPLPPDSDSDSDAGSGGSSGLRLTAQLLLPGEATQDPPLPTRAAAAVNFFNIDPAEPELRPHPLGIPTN
row,Ki,Structure (SMILES)
1,11.6 nM,"COc1ccc2c(c1)C(CC(C)N(C)C)=C1c3ccccc3S(=O)(=O)C12 (stereo unspecified) [2-Methoxy-10-[(2-N,N-dimethylamino-2-methyl)ethyl)]benzo[d]isothiazolo[3,2-a]indol-S,S-dioxide (15)]"
2,246 nM,"CN(C)CCC1=C2c3ccccc3S(=O)(=O)C2c2ccccc21 (stereo unspecified) [10-(2-N,N-Dimethylaminoethyl)benzo[d]isothiazolo[3,2-a]indol-S,S-dioxide (6)]"
3,11.1 nM,"CCOc1ccc2c(c1)C(CC(C)N(C)C)=C1c3ccccc3S(=O)(=O)C12 (stereo unspecified) [2-Ethoxy-10-[(2-N,N-dimethylamino-2-methyl)ethyl]benzo[d]isothiazolo[3,2-a]indol-S,S-dioxide (17)]"
4,28.3 nM,"CCC(CC1=C2c3ccccc3S(=O)(=O)C2c2ccc(OC)cc21)N(C)C (stereo unspecified) [2-Methoxy-10-[(2-N,N-dimethylamino-2-ethyl)ethyl]benzo[d]isothiazolo[3,2-a]indol-S,S-dioxide (16)]"
5,267 nM,"CN(C)CCC1=C2c3ccccc3S(=O)(=O)C2c2ccc(F)cc21 (stereo unspecified) [10-(2-N,N-Dimethylaminoethyl)-2-fluorobenzo[d]isothiazolo[3,2-a]indol-S,S-dioxide (7)]"
6,239 nM,"CC(C)Oc1ccc2c(c1)C(CC(C)N(C)C)=C1c3ccccc3S(=O)(=O)C12 (stereo unspecified) [2-Isopropoxy-10-[(2-N,N-dimethylamino-2-methyl)ethyl]benzo[d] isothiazolo[3,2-a]indol-S,S-dioxide (19)]"
7,96 nM,"COc1ccc2c(c1)C(CCN(C)C)=C1c3ccccc3S(=O)(=O)C12 (stereo unspecified) [2-Methoxy-10-(2-N,N-dimethylaminoethyl)benzo[d]isothiazolo[3,2-a]indol-S,S-dioxide (14)]"
8,92.6 nM,"CN(C)CCC1=C2c3ccccc3CC2c2c1ccc1ccccc21 (stereo unspecified) [10-(2-N,N-dimethylaminoethyl)benzo[d]isoindolo[2,1-a]indole (28)]"
9,> 1000 nM,"CC(CC1=C2c3ccccc3S(=O)(=O)C2c2ccc(OCC3CCCCC3)cc21)N(C)C (stereo unspecified) [2-Cyclohexylmethyloxy-10-[(2-N,N-dimethylamino-2-methyl)ethyl]benzo[d] isothiazolo[3,2-a]indol-S,S-dioxide (20)]"
10,100 nM,"CC(CC1=C2c3ccccc3S(=O)(=O)C2c2ccc(OCc3ccccc3)cc21)N(C)C (stereo unspecified) [2-Benzyloxy-10-[(2-N,N-dimethylamino-2-methyl)ethyl]benzo[d]isothiazolo[3,2-a]indol-S,S-dioxide (18)]"
11,54.1 nM,"CC(CC1=C2c3ccccc3S(=O)(=O)C2c2ccc(Br)cc21)N(C)C (stereo unspecified) [2-Bromo-10-[(2-N,N-dimethylamino-2-methyl)ethyl]benzo[d]isothiazolo[3,2-a]indol-S,S-dioxide (13)]"
